Reference: patent US9193695B2, “1, 2, 4-triazolone derivative and use thereof as an antagonist on the arginine-vasopressin 1B receptor” (TAISHO PHARMACEUTICAL CO., LTD., priority 2010, dated 2015)

Biological target: T1, Human V1b receptor (Homo sapiens, UniProt P47901)
T1 sequence (P47901 1-424): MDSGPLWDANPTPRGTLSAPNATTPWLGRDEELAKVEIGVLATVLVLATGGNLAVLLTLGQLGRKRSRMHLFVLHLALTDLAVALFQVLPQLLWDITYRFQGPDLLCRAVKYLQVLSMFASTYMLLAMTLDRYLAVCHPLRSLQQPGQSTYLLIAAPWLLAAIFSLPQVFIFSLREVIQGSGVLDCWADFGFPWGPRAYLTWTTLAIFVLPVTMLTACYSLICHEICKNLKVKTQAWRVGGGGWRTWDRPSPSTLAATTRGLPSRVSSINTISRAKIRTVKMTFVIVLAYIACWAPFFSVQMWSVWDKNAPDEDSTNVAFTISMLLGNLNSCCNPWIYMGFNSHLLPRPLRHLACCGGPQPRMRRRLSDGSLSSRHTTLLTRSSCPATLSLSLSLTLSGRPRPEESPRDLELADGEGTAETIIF
Test: Binding test for V1b receptor ([3H]AVP displacement, crude membrane preparation)
Design: expressed in transfected cells; host or cells: 293FT cells (Invitrogen), transient expression; crude membrane preparation
Conditions: [3H]AVP 0.4 to 1 nmol/L; membranes of 293FT cells transiently expressing human V1b receptor; room temperature, 60 minutes
Procedure: Binding Test for V1b Receptor
Human V1b receptor was transiently expressed in 293FT cells (Invitrogen). The cells were collected and were homogenated in a 15 mmol/L tris-hydrochloric acid buffer (pH 7.4, containing 2 mmol/L magnesium chloride, 0.3 mmol/L ethylenediaminetetracetic acid, and 1 mmol/L glycol ether diaminetetraacetic acid). The resulting homogenate was centrifuged at 50,000×g at 4° C. for 20 minutes. The precipitate was resuspended in a 75 mmol/L tris-hydrochloric acid buffer (pH 7.4, containing 12.5 mmol/L magnesium chloride, 0.3 mmol/L ethylenediaminetetracetic acid, 1 mmol/L glycol ether diamine tetraacetic acid, and 250 mmol/L sucrose) to give a crude membrane preparation, which was stored at −80° C. until the binding test. In the binding test, the crude membrane preparation was diluted with a 50 mmol/L tris-hydrochloric acid buffer (pH 7.4, containing 10 mmol/L magnesium chloride and 0.1% bovine serum albumin), and test compound was serially diluted with DMSO. The diluted crude membrane preparation was incubated with each test compound (final concentration of 0.01 nmol/L to 1 μmol/L) and [^3H]AVP (final concentration: 0.4 to 1 nmol/L) at room temperature for 60 minutes. After the incubation, the mixture was suction filtered through a GF/C filter pretreated with 0.3% polyethyleneimine. The GF/C filter was dried, and a scintillator was added thereto. The radioactivity remaining on the filter was measured using TopCount (PerkinElmer Inc.). The radioactivity in the presence of 10 μmol/L of unlabeled AVP was defined as 0%, and the radioactivity in the absence of unlabeled AVP was defined as 100%. A dose-response curve was plotted from radioactivities in the presence of a test compound at various concentrations, and the 50% inhibitory concentration (IC50 value) of the compound was calculated.

SMILES	IC50
CC(C)NC(=O)Cn1c(-c2cccc(Cl)c2)nn(-c2ccc(CCN3CCCCC3)cc2)c1=O [Aa-11, 2-[3-(3-Chlorophenyl)-5-oxo-1-{4-[2-(piperidin-1-yl)ethyl]phenyl}-1,5-dihydro-4H-1,2,4-triazol-4-yl]-N-(propan-2-yl)acetamide]	0.037 µM
CC(C)NC(=O)Cn1c(-c2cccc(Cl)c2)nn(-c2ccc(CC(C)N3C4CCC3COC4)cc2)c1=O (centres unmarked) [Ad-14, 2-[3-(3-Chlorophenyl)-1-{4-[2-(3-oxa-8-azabicyclo[3.2.1]oct-8-yl)propyl]phenyl}-5-oxo-1,5-dihydro-4H-1,2,4-triazol-4-yl]-N-(propan-2-yl)acetamide]	0.00054 µM
CC(C)NC(=O)Cn1c(-c2cccc(Cl)c2)nn(-c2ccc(CCN3CCOCC3)nc2)c1=O [Ac-2, 2-[3-(3-Chlorophenyl)-1-{6-[2-(morpholin-4-yl)ethyl]pyridin-3-yl}-5-oxo-1,5-dihydro-4H-1,2,4-triazol-4-yl]-N-(propan-2-yl)acetamide]	0.079 µM
COc1cccc(-c2nn(-c3ccc(CCN4C5CCC4COC5)cn3)c(=O)n2CC(=O)NC(C)(C)C)c1 [Bd-2, N-Tert-Butyl-2-[3-(3-methoxyphenyl)-1-{5-[2-(3-oxa-8-azabicyclo[3.2.1]oct-8-yl)ethyl]pyridin-2-yl}-5-oxo-1,5-dihydro-4H-1,2,4-triazol-4-yl]acetamide]	0.0036 µM
COc1cc(-c2nn(-c3ccc(CCN4CCC5CCCCC5C4)cc3)c(=O)n2CC(=O)NC(C)C)ccc1F (centres unmarked) [Ca-15, 2-[3-(4-Fluoro-3-methoxyphenyl)-1-{4-[2-(octahydroisoquinolin-2(1H)-yl)ethyl]phenyl}-5-oxo-1,5-dihydro-4H-1,2,4-triazol-4-yl]-N-(propan-2-yl)acetamide]	0.01 to 0.1 µM
COc1cc(-c2nn(-c3ccc(CCN4C[C@@H](C)O[C@@H](C)C4)cc3)c(=O)n2CC(=O)NC(C)C)ccc1F [Ca-20, 2-[1-(4-{2-[(2R,6S)-2,6-Dimethylmorpholin-4-yl]ethyl}phenyl)-3-(4-fluoro-3-methoxyphenyl)-5-oxo-1,5-dihydro-4H-1,2,4-triazol-4-yl]-N-(propan-2-yl)acetamide]	0.01 to 0.1 µM
COc1cc(-c2nn(-c3ccc(CCN4CCC(C(N)=O)CC4)cc3)c(=O)n2CC(=O)NC(C)C)ccc1F [Ca-13, 1-[2-(4-{3-(4-Fluoro-3-methoxyphenyl)-5-oxo-4-[2-oxo-2-(propan-2-ylamino)ethyl]-4,5-dihydro-1H-1,2,4-triazol-1-yl}phenyl)ethyl]piperidine 4-carboxamide]	0.1 to 1 µM
COc1cc(-c2nn(-c3ccc(CCN4CCCCC4)cc3)c(=O)n2CC(=O)NC(C)C)ccc1F [Ca-1, 2-[3-(4-Fluoro-3-methoxyphenyl)-5-oxo-1-{4-[2-(piperidin-1-yl)ethyl]phenyl}-1,5-dihydro-4H-1,2,4-triazol-4-yl]-N-(propan-2-yl)acetamide]	0.026 µM
CCC1COCCN1CCc1ccc(-n2nc(-c3ccc(F)c(OC)c3)n(CC(=O)NC(C)C)c2=O)cc1 (centres unmarked) [Ca-23, 2-[1-{4-[2-(3-Ethylmorpholin-4-yl)ethyl]phenyl}-3-(4-fluoro-3-methoxyphenyl)-5-oxo-1,5-dihydro-4H-1,2,4-triazol-4-yl]-N-(propan-2-yl)acetamide]	0.01 to 0.1 µM
COc1cccc(-c2nn(-c3ccc(CC(C)N4C5CCC4COC5)cn3)c(=O)n2CC(=O)NC(C)(C)C)c1 (centres unmarked) [Bd-4, N-Tert-Butyl-2-[3-(3-methoxyphenyl)-1-{5-[2-(3-oxa-8-azabicyclo[3.2.1]oct-8-yl)propyl]pyridin-2-yl}-5-oxo-1,5-dihydro-4H-1,2,4-triazol-4-yl]acetamide]	0.00044 µM
COc1cc(-c2nn(-c3ccc(CCN4C5CCC4CC(O)C5)cn3)c(=O)n2CC(=O)NC(C)C)ccc1F (centres unmarked) [Cb-4, 2-[3-(4-Fluoro-3-methoxyphenyl)-1-{5-[2-(3-hydroxy-8-azabicyclo[3.2.1]oct-8-yl)ethyl]pyridin-2-yl}-5-oxo-1,5-dihydro-4H-1,2,4-triazol-4-yl]-N-(propan-2-yl)acetamide]	0.0086 µM
